Data on two compounds can be found in ChEMBL document CHEMBL4507319 (2021).

SMILES strings stand for the structures.

For experiment [1], the target named is Tyrosine-protein kinase SYK (Homo sapiens) (UniProt P43405). To be noted: Compound concentration 1000.0 nM.
The target in experiment [2] is Mitogen-activated protein kinase 15 (Homo sapiens) (UniProt Q8TD08). As to conditions: Compound concentration 1000.0 nM.
Experiment [3] addresses Serine/threonine-protein kinase PLK1 (Homo sapiens) (UniProt P53350). As to conditions: Compound concentration 1000.0 nM.
For experiment [4], the target named is Sigma intracellular receptor 2 (Homo sapiens, UniProt Q5BJF2). Nature of the experiment: GPCRScan assay: inhibition of Sigma 2. Details: radioligand conc. used [nm] 5.0, parental cells HEKT.
Chain of Sigma intracellular receptor 2 (Q5BJF2 whole entry): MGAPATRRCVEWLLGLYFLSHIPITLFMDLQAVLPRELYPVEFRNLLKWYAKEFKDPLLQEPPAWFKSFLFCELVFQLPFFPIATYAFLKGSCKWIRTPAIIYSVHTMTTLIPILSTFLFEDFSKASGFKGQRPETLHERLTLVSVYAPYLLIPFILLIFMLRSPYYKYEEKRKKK
The target in experiment [5] is T1, cAMP-dependent protein kinase catalytic subunit PRKX (Homo sapiens) (UniProt P51817).
T1 sequence (whole entry): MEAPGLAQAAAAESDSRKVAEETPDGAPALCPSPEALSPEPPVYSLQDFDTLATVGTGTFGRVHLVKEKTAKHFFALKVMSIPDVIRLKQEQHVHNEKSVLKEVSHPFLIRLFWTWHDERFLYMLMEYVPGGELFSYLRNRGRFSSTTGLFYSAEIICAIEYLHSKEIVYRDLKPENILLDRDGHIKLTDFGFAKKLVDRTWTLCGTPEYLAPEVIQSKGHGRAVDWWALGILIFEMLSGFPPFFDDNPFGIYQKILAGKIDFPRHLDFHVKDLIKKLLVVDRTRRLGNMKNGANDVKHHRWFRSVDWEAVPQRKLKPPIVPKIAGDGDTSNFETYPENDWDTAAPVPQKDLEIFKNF
As to conditions: Compound concentration 1000.0 nM.

Experiment [6] concerns Epidermal growth factor receptor (Homo sapiens), P00533 [UNDEFINED MUTATION]. To be noted: Compound concentration 1000.0 nM.
Experiment [7] has as its target Leucine-rich repeat serine/threonine-protein kinase 2 (Homo sapiens) (UniProt Q5S007). To be noted: Compound concentration 1000.0 nM.
The target in experiment [8] is Calcium/calmodulin-dependent protein kinase kinase 1 (Homo sapiens) (UniProt Q8N5S9). To be noted: Compound concentration 1000.0 nM.
Chain of Calcium/calmodulin-dependent protein kinase kinase 1 (Homo sapiens) (Q8N5S9 whole entry, looked up): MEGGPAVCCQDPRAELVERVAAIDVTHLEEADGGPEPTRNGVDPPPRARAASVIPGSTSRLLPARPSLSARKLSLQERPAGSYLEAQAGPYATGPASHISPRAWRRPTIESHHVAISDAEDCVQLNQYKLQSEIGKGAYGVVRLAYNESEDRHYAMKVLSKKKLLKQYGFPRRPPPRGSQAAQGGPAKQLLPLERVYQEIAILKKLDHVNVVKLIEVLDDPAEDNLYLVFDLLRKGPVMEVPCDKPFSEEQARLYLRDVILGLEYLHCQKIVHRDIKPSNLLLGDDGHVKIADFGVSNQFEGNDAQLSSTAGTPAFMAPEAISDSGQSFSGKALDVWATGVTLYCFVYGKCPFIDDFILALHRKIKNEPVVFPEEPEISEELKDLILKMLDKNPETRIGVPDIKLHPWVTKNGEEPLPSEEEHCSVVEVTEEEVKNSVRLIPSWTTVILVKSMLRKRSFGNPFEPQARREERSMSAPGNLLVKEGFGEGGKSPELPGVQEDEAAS
For experiment [9], the target named is TRAF2 and NCK-interacting protein kinase (Homo sapiens) (UniProt Q9UKE5). To be noted: Compound concentration 1000.0 nM.
In experiment [10] the target is Receptor-interacting serine/threonine-protein kinase 1 (Homo sapiens) (UniProt Q13546). To be noted: Compound concentration 1000.0 nM.
For experiment [11], the target named is T2, Serine/threonine-protein kinase Sgk2 (Homo sapiens) (UniProt Q9HBY8).
T2 sequence (whole entry): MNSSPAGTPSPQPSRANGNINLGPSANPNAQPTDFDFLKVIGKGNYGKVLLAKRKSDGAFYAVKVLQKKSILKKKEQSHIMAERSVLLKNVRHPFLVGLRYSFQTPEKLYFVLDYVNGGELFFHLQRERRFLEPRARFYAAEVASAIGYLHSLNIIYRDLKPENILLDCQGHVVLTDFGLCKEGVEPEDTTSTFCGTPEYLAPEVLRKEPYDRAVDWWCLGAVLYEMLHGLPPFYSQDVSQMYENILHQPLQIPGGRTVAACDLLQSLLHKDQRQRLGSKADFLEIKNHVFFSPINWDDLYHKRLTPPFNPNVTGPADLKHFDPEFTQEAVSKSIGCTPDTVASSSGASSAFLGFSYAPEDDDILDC
As to conditions: Compound concentration 1000.0 nM.

Experiment [12] concerns Mast/stem cell growth factor receptor Kit (Homo sapiens), P10721 [A829P]. To be noted: Compound concentration 1000.0 nM.
Chain of Mast/stem cell growth factor receptor Kit (Homo sapiens), P10721 [A829P] (P10721 whole entry A829P): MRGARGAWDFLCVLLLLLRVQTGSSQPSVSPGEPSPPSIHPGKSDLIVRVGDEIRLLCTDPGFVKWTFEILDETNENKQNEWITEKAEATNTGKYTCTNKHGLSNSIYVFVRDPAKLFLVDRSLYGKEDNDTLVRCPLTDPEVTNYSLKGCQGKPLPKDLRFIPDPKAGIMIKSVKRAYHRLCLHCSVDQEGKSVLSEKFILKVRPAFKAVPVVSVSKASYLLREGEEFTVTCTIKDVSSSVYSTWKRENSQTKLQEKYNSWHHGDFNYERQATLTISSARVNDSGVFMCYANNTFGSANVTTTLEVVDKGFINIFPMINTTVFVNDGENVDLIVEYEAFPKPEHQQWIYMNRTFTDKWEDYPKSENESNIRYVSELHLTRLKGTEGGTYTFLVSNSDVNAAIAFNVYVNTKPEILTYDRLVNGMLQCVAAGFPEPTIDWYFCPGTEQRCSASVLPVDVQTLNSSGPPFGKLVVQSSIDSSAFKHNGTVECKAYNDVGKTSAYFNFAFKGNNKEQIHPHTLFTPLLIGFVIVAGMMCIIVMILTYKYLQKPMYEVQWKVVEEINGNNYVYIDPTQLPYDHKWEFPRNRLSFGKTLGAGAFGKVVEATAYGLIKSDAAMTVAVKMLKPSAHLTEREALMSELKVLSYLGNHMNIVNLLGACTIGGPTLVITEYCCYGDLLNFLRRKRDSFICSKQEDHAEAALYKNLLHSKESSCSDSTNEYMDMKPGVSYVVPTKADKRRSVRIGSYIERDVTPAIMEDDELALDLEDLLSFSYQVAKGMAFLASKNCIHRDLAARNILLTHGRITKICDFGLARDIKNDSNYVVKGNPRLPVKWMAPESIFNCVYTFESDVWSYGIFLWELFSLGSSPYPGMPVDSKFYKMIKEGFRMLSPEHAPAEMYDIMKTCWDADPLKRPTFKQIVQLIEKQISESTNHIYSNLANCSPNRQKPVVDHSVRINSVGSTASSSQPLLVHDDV
For experiment [13], the target named is Cyclin-dependent kinase 5 (Homo sapiens) (UniProt Q00535). As to conditions: Compound concentration 1000.0 nM.
In experiment [14] the target is Serine/threonine-protein kinase B-raf (Homo sapiens) (UniProt P15056). To be noted: Compound concentration 1000.0 nM.
Experiment [15] has as its system eIF-2-alpha kinase GCN2 (Homo sapiens), Q9P2K8 [S808G]. As to conditions: Compound concentration 1000.0 nM.
The target of experiment [16] is Cyclin-dependent kinase 19 (Homo sapiens) (UniProt Q9BWU1). To be noted: Compound concentration 1000.0 nM.
The target of experiment [17] is Mitogen-activated protein kinase kinase kinase kinase 1 (Homo sapiens) (UniProt Q92918). To be noted: Compound concentration 1000.0 nM.
Chain of Mitogen-activated protein kinase kinase kinase kinase 1 (Homo sapiens) (Q92918 whole entry, looked up): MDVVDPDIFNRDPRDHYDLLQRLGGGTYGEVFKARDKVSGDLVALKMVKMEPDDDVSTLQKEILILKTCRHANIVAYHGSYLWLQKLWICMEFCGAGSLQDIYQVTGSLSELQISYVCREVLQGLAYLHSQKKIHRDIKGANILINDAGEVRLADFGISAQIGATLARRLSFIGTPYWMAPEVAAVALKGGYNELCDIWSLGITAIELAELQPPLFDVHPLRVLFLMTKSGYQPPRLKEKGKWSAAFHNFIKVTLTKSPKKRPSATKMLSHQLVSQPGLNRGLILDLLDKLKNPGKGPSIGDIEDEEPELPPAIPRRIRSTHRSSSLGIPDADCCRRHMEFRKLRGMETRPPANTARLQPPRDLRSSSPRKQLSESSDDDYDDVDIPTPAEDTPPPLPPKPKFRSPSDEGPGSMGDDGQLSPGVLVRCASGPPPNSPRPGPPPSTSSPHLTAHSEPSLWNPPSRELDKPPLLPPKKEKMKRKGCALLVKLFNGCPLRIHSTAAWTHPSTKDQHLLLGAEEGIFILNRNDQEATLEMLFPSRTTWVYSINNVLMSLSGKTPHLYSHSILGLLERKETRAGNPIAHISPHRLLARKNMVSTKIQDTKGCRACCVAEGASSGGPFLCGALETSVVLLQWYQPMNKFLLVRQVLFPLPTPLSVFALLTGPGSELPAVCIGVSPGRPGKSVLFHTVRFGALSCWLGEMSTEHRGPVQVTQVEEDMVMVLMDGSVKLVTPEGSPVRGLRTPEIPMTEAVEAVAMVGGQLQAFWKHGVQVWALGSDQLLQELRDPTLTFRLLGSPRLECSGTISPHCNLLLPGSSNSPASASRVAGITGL
For experiment [18], the target named is T3, NUAK family SNF1-like kinase 2 (Homo sapiens) (UniProt Q9H093).
T3 sequence (whole entry): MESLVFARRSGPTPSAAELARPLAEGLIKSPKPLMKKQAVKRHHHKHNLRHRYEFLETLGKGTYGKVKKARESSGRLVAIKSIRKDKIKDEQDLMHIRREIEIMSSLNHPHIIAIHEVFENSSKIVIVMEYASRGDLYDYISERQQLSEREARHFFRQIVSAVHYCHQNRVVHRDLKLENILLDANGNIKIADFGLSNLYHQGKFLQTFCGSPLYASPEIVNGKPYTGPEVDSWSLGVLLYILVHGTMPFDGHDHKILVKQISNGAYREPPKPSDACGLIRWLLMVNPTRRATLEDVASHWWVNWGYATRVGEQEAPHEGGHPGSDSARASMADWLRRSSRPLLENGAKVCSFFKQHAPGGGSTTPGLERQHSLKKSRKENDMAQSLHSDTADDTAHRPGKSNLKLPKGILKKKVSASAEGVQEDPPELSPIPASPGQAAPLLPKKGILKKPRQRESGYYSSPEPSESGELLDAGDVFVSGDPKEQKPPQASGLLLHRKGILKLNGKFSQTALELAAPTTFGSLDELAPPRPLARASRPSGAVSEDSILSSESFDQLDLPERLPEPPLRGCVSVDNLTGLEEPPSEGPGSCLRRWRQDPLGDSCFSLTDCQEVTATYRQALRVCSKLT
To be noted: Compound concentration 1000.0 nM.

Chain of Leucine-rich repeat serine/threonine-protein kinase 2 (Homo sapiens) (Q5S007 whole entry): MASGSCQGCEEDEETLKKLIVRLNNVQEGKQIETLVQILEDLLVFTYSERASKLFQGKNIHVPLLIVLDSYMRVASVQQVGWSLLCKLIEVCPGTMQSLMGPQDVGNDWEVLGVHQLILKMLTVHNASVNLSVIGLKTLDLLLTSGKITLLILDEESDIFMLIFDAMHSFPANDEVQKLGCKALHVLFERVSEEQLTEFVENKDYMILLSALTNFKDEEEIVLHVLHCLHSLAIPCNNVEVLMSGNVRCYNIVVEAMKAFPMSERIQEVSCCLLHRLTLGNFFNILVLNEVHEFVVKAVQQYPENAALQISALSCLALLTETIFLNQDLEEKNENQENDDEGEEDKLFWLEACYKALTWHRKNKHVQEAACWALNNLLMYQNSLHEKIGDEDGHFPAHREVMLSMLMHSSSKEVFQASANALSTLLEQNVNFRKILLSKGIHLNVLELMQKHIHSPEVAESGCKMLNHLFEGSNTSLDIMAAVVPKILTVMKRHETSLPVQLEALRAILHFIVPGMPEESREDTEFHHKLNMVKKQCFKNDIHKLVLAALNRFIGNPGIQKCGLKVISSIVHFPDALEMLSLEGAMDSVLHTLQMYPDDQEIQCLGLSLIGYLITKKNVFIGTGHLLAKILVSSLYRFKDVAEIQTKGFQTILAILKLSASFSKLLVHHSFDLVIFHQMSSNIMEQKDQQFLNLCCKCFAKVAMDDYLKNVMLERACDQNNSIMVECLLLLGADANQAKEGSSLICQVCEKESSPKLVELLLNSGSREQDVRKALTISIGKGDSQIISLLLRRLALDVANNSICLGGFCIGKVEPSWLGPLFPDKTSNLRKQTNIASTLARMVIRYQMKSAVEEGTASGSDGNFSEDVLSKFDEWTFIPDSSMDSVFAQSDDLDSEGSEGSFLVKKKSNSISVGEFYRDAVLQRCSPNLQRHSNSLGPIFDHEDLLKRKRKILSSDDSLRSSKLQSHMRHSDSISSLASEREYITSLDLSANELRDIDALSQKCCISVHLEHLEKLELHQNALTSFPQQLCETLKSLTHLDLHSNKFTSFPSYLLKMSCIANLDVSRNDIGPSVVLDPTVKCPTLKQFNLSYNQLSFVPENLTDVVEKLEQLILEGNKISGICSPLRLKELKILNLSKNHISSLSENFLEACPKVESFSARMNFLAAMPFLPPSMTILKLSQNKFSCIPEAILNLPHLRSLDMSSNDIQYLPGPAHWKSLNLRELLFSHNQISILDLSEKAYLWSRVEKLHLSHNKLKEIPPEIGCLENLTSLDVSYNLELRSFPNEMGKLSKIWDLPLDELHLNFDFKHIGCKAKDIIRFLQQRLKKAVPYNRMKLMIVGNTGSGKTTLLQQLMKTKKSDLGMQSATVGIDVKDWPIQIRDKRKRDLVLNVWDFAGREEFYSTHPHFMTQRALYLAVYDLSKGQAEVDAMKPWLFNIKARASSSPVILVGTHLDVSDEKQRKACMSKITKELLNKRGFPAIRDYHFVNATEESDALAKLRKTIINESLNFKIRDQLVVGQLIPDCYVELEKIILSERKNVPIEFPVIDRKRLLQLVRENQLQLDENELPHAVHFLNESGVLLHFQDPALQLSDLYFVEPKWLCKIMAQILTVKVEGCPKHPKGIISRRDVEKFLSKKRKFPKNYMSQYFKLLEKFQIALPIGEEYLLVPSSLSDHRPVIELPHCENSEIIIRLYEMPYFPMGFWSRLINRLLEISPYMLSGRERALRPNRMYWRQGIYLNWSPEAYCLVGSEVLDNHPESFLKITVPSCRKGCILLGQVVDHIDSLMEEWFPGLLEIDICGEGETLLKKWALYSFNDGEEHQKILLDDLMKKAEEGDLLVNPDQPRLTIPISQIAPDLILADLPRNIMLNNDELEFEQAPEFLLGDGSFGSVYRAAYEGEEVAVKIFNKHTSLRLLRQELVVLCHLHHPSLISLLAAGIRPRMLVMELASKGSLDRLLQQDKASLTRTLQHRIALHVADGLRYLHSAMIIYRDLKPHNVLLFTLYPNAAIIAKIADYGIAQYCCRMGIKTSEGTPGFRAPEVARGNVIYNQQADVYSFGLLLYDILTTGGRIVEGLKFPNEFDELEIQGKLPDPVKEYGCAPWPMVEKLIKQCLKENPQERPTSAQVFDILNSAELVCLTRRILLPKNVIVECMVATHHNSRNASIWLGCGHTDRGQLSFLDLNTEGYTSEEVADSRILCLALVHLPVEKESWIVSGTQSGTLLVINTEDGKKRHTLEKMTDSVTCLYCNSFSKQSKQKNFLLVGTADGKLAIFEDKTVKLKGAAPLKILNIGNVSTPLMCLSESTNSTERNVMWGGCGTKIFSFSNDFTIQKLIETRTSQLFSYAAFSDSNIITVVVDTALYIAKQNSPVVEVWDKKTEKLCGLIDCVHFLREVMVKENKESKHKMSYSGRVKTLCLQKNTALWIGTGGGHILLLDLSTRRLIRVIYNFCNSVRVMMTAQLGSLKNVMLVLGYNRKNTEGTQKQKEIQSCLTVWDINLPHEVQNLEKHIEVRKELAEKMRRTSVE

As to `CC1=C(C#N)C(c2ccc3c(c2)c(NC(=O)c2ccccc2C)nn3C)C(C#N)=C(C)N1` [BAY-974], the residual activity was 100% in experiment [1]; 89% in experiment [2]; 85% in experiment [3]; 76% in [5]; 52% in experiment [6]; 88% in experiment [7]. Also, the residual activity was 100% in experiment [8]; 98% in [9]; 100% in experiment [10]; 73% in experiment [11]; 64% in experiment [12]; 87% in experiment [13]. The residual activity is 47% in [14]; 61% in experiment [15]; 74% in experiment [16]; 81% in experiment [17]; 81% in [18]. Also, the Ki (usually the dissociation constant of the complex between target and ligand, obtained from inhibition or displacement) in experiment [4] amounted to 4.47 µM.

As for `CCc1ccccc1C(=O)Nc1n[nH]c2c(C)c(F)c(C3C(C#N)=C(C)N(C)C(C)=C3C#N)cc12` [BAY-3827], the residual activity in experiment [1] is 100%; in [2] it was 81%; in [3], 100%; in [5] it was 88%; in [6], 62%; in experiment [7], 100%. For the same compound, the residual activity in experiment [8] is 100%; in [9], 78%; in [10] it was 100%; in experiment [11], 100%; in [12], 100%; in experiment [13] it was 89%. Besides, the residual activity in [14] was 78%; in experiment [15], 43%; in [16], 100%; in experiment [17], 73%; in [18], 40%. Moreover, the inhibitory constant (Ki) in experiment [4] came to 2.84 µM.
